In experiment [1] the test system is patients with toxic liver damage, alcoholic hepatitis, alcoholic liver disease (fatty hepatosis), alcoholic liver cirrhosis. Briefly: Efficacy of derivatives No. 1 and No. 2 in patients with liver disease (decrease in ALT, ASAT, GGTP). It is filed as in vivo, patients (men and women). To be noted: of 30 patients. An excerpt: The study of the efficacy of derivatives No. 1 and No. 2 was additionally carried out with the participation of patients (men and women aged 25 to 60 years) with the following diagnoses: toxic liver damage, alcoholic hepatitis, alcoholic liver disease (fatty hepatosis), alcoholic liver cirrhosis.
Inclusion criteria: increased levels of alanine aminotransferase (ALT), aspartate aminotransferase (ASAT), gamma glutaminetransferase (GGTP) at least 2 times the upper limit of the normal value.
Patients of the experimental group (30 persons) adhibited derivative No. 1 in the form of capsules containing 250 mg of the drug in a total dose of 1000 mg/day.
Patients of the control group (9 persons) adhibited placebo (capsules filled with chalk).
Patients of the experimental group (30 persons) adhibited derivative No. 2 in the form of lyophilisate for IV injection containing 50 mg of the drug in a total dose of 300 mg/day.
Patients of the control group (10 persons), were administered a 0.9% solution of NaCl as a placebo.

Experiment [2] has as its system Acute toxic hepatitis in rats induced by carbon tetrachloride (CCl4). Nature of the experiment: Hepatoprotective activity in rats with acute toxic hepatitis induced by CCl4. To be noted: 25 mg/kg; for Survivability of the animals by day 28: Wistar rats; for Body weight of the animals by the 20th day: surviving animals. In kind it is in vivo, Wistar rats. As for the experimental part: The animals were in standard housing conditions under natural light conditions, with free access to water and food. Acute toxic hepatitis in rats was induced by means of intragastric administration of 50% solution of carbon tetrachloride (CCl 4) in olive oil at a dose of 1 ml/kg for 6 days. […]
The tested preparations were administered orally in the form of a suspension in olive oil once a day after the formation of the model pathology or intravenously at a dose of 25 mg/kg. The weight dynamics of the rats were determined on Sartorius scale.

Experiment [3] relates to toxic hepatitis modelled by combined administration of dichloroethane and acetaminophen. Briefly: Combined effect of subject compounds and known hepatic drugs, toxic hepatitis by dichloroethane and acetaminophen (500 and 500 mg/kg). Conditions: untreated control 10. In kind it is in vivo. As for the experimental part:
Also, the combined effect of the subject compounds and known drugs for the treatment of hepatic diseases was examined.
For the modeling of toxic hepatitis, the combined administration of dichloroethane and acetaminophen in doses of 500 and 500 mg/kg, respectively, was used. After 10 days all experimental animals confirmed the presence of toxic hepatitis according to the morphological pattern of the liver.

Experiment [4] shares this test system. Nature of the experiment: Toxic hepatitis caused by dichloroethane and acetaminophen (300 and 250 mg/kg), treatment with derivative No. 4. Conditions: for Cytochrome B5 / Cytochrome P450 / Glycogen / Reduced glutathione: liver. In kind it is in vivo, laboratory rats. As to the method:
The efficacy of derivative No. 4 on additional parameters was studied in laboratory rats.
For the modeling of toxic hepatitis, the combined administration of dichloroethane and acetaminophen in doses of 300 and 250 mg/kg, respectively, was used. After 10 days all experimental animals confirmed the presence of toxic hepatitis according to the morphological pattern of the liver. In the untreated control group, by the 10th day of the study, 4 animals out of 10 died.
From that time, for 10 days, the experimental animals were administered, once a day, derivative No. 4 (50 mg/kg, intragastrically in starch mucus) or derivative No. 4 (10 mg/kg, IV, into the tail vein).

Where [5] appears, read: capsules 250 mg, total dose 1000 mg/day, control 1 of 9.
The mark [6] stands for this setting: lyophilisate for IV injection, total dose 300 mg/day, control 1 of 10.
The mark [7] stands for this setting: Enteral administration, 50 mg/kg intragastrically once a day, day 10.
Where [8] appears, read: Parenteral administration, 10 mg/kg IV once a day, day 10.
[9] abbreviates: Intraventricular administration, once a day.

With `O=C1NC(O)(O)C(=NO)C(=O)N1c1ccc(Br)cc1` [Derivative 1, 3-(4-bromophenyl)-6,6-dihydroxy-5-hydroxyiminohexahydro-2,4-pyrimidinedione], in experiment [1] (setting [5]), the “The number of patients in the group with a decrease in ALT by 30% or more” value was 23 and the “The number of patients in the group with a decrease in ASAT by 30% or more” value amounted to 23. Moreover, in experiment [1] (capsules 250 mg, total dose 1000 mg/day, control 2 of 9), the “The number of patients in the group with a decrease in GGTP by 30% or more” value is 25. Also, in experiment [2] (Intravenous administration), the “Survivability of the animals by day 28” value is 57% and the “Body weight of the animals by the 20th day” value (shortened to “Body weight of the animals”) is reported as 171 ± 5%. Also, the “Survivability of the animals by day 28” value in experiment [2] (once a day) is 59%. In experiment [3], the “Survivability by the 10th day” value is listed as 40%.
Turning to `O=C1NC(O)(O)C(=N[O-])C(=O)N1c1ccc(Br)cc1.[Na+]` [Derivative 2], in experiment [1] (setting [6]), the “The number of patients in the group with a decrease in ALT by 30% or more” value is 17 and the “The number of patients in the group with a decrease in ASAT by 30% or more” value is reported as 19. The “The number of patients in the group with a decrease in GGTP by 30% or more” value in experiment [1] (lyophilisate for IV injection, total dose 300 mg/day, control 2 of 10) worked out at 25. In addition, the “Survivability by the 10th day” value in experiment [3] is 40%.
For `NC(CO)(CO)CO.O=C1NC(O)(O)C(=NO)C(=O)N1c1ccc(Br)cc1` [Derivative 4], in experiment [4] (setting [7]), the “-SH-group” value worked out at 900 ± 50 μmol/100 ml, the ALP came to 0.73 ± 0.09 μkat/l, the ALT was found to be 0.54 ± 0.08 μkat/l and the ASAT is on record as 0.72 ± 0.06 μkat/l. For the same compound, in experiment [4] (setting [7]), the Body weight amounted to 180 ± 15 g; the “Bromsulfalein, at the 10th minute after the introduction” value is 19.3 ± 1.1 mg %; the Ceruloplasmin stood at 520 ± 50 mg/L; the ChE was 2.1 ± 0.2 µmol/g/min. Moreover, in experiment [4] (setting [7]), the Cholesterol came out at 1.58 ± 0.21 mmol/L, the Glucose was found to be 4.5 ± 0.4 mmol/L, the Hexenalum sleep worked out at 27.0 ± 1.5 min and the LDH worked out at 6.82 ± 0.34 mmol/h/L. Besides, in experiment [4] (setting [7]), the Prothrombin time was determined as 43 ± 5 s, the Timole test is 2.86 ± 0.44 units of turbidity, the Total lipids was determined as 3.2 ± 0.1 g/L and the Total protein came out at 52 ± 5 g/L. In addition, in experiment [4] (setting [7]), the “Cytochrome B5” value is given as 0.54 ± 0.07 mmol/mg protein ×10^−4, the “Cytochrome P450” value is 0.98 ± 0.06 mmol/mg protein ×10^−4, the Glycogen stood at 1600 ± 100 mg % and the Reduced glutathione came out at 165 ± 10 mg %. Further, in experiment [4] (setting [8]), the “-SH-group” value stood at 640 ± 50 μmol/100 ml, the ALP turned out to be 0.82 ± 0.12 μkat/l, the ALT turned out to be 0.69 ± 0.06 μkat/l and the ASAT was found to be 0.76 ± 0.08 μkat/l. In addition, in experiment [4] (setting [8]), the Body weight amounted to 185 ± 5 g; the “Bromsulfalein, at the 10th minute after the introduction” value came out at 23.0 ± 1.6 mg %; the Ceruloplasmin worked out at 580 ± 80 mg/L; the ChE was determined as 2.2 ± 0.2 µmol/g/min. Also, in experiment [4] (setting [8]), the Cholesterol is 1.70 ± 0.26 mmol/L, the Glucose was 4.6 ± 0.2 mmol/L, the Hexenalum sleep came to 29.5 ± 1.5 min and the LDH came out at 8.24 ± 0.35 mmol/h/L. Moreover, in experiment [4] (setting [8]), the Timole test was 3.22 ± 0.53 units of turbidity, the Total lipids was 2.9 ± 0.2 g/L, the Total protein was 48 ± 4 g/L and the “Cytochrome B5” value turned out to be 0.68 ± 0.04 mmol/mg protein ×10^−4. Further, in experiment [4] (setting [8]), the “Cytochrome P450” value came to 1.12 ± 0.03 mmol/mg protein ×10^−4, the Glycogen is given as 1500 ± 200 mg % and the Reduced glutathione was 170 ± 10 mg %. For the same compound, the Death of animals entry in experiment [4] (enterally or parenterally injected, untreated control: 4 animals out of 10 died by the 10th day) is reported as “not a single animal died”. In experiment [3], the “Survivability by the 10th day” value is 40%.
On to `NCCCO.O=C1NC(O)(O)C(=NO)C(=O)N1c1ccc(Br)cc1` [Derivative 5], for which the “Survivability of the animals by day 28” value came out at 60% in experiment [2] (Intravenous administration) and 61% in experiment [2] (setting [9]). Further, the “Body weight of the animals” value in experiment [2] (Intravenous administration) is recorded as 168 ± 7%; in experiment [2], 161 ± 9%.
For `C[S+](CC[C@H](N)C(=O)[O-])C[C@H]1O[C@@H](n2cnc3c(N)ncnc32)[C@H](O)[C@@H]1O` (some centres unmarked) [Prototype, S-Adenosyl methionine-ademetionine, reference compound], the “Survivability of the animals by day 28” value in experiment [2] (Intravenous administration) is 48%; in experiment [2] (setting [9]), 46%. For the same compound, the “Body weight of the animals” value worked out at 159 ± 4% in experiment [2] (Intravenous administration) and 160 ± 4% in experiment [2]. In experiment [3], the “Survivability by the 10th day” value was 30%.
As to `C[C@H](CCC(=O)O)[C@H]1CC[C@H]2[C@@H]3[C@@H](O)C[C@@H]4C[C@H](O)CC[C@]4(C)[C@H]3CC[C@]12C` [Ursodeoxycholic acid, ursodeoxycholic acid, reference compound], the “Survivability by the 10th day” value in experiment [3] came to 20%.

The values are drawn from patent publication US10307424B2, “Drug with hepatoprotective activity” (priority 2015, dated 2019).
